test system: cell-cell fusion of TZM-bl target cells and HL2/3 effector cells (HXB2 Env); experiment: cell-cell fusion, luciferase reporter; assay type: cell-based, HIV-1; details: read-out: IC50 CCF, 6 hours, 1% DMSO, results ±50%

Which IC50 does the source give for [Phe]-Trp here?
Its IC50 is 9 µM.

Which IC50 does the source give for [Trp]-Phe here?
Its IC50 is 4 µM.

Which IC50 does the source give for [Trp]-Trp here?
The IC50 was 19 µM.

Reference: PMC3777804 (Journal of computer-aided molecular design, 2013)
